Results from PubChem BioAssay AID1963451 (Molecular Pharmacology Branch, DTP, NCI, 2024).

Test system: 521955-158-R6-J3-PDC complex spheroid growth, % test/control
Test: Anticancer human tumor 521955-158-R6-J3-PDC patient-derived pancreatic carcinoma cell line growth inhibition [Asc]
Settings: for IC50: curve of first compound; for viability, T/C: stronger effect = lower value
Method in brief: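 Tumor cells were grown as multicellular spheroids with stromal HUVEC and mesenchymal stem cells and treated singly or in combination. Concentrations fell in half-log steps from the clinical Cmax, or from 10 microM where none was known.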
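Further: spheroids exposed to compounds for 7 days.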
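Wherever viability, T/C is given: 100% = DMSO vehicle control wells.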

Structure (SMILES): CCN1CCN(Cc2ccc(Nc3ncc(F)c(-c4cc(F)c5nc(C)n(C(C)C)c5c4)n3)nc2)CC1 + Cc1c(S(C)(=O)=O)c(-c2cc(F)cc(N3CCN(c4ccc(NS(=O)(=O)c5ccc(NC(CCN6CCC(C(=O)OCCCP(=O)(O)O)CC6)CSc6ccccc6)c(S(=O)(=O)C(F)(F)F)c5)cc4)CC3)c2)c(-c2ccc(Cl)cc2)n1C(C)C
- IC50 (second compound 0.0316 µM): > 1000 nM
- IC50 (second compound 0.1 µM): > 1000 nM
- IC50 (second compound 0.316 µM): < 3.16 nM
- IC50 (second compound 1 µM): < 3.16 nM
- IC50 (second compound 3.16 µM): < 3.16 nM
- IC50 (second compound 10 µM): < 3.16 nM
- viability, T/C (second compound 0.0316 µM, first compound 0.00316 µM): 96.2%
- viability, T/C (second compound 0.0316 µM, first compound 0.01 µM): 81%
- viability, T/C (second compound 0.0316 µM, first compound 0.0316 µM): 73.6%
- viability, T/C (second compound 0.0316 µM, first compound 0.1 µM): 71.9%
- viability, T/C (second compound 0.0316 µM, first compound 0.316 µM): 67.6%
- viability, T/C (second compound 0.0316 µM, first compound 1 µM): 84.4%
- viability, T/C (second compound 0.1 µM, first compound 0.00316 µM): 72.3%
- viability, T/C (second compound 0.1 µM, first compound 0.01 µM): 57.5%
- viability, T/C (second compound 0.1 µM, first compound 0.0316 µM): 62%
- viability, T/C (second compound 0.1 µM, first compound 0.1 µM): 63.1%
- viability, T/C (second compound 0.1 µM, first compound 0.316 µM): 82.1%
- viability, T/C (second compound 0.1 µM, first compound 1 µM): 73.5%
- viability, T/C (second compound 0.316 µM, first compound 0.00316 µM): 53%
- viability, T/C (second compound 0.316 µM, first compound 0.01 µM): 49%
- viability, T/C (second compound 0.316 µM, first compound 0.0316 µM): 43.9%
- viability, T/C (second compound 0.316 µM, first compound 0.1 µM): 53.6%
- viability, T/C (second compound 0.316 µM, first compound 0.316 µM): 49.4%
- viability, T/C (second compound 0.316 µM, first compound 1 µM): 53.9%
- viability, T/C (second compound 1 µM, first compound 0.00316 µM): 35.6%
- viability, T/C (second compound 1 µM, first compound 0.01 µM): 39.1%
- viability, T/C (second compound 1 µM, first compound 0.0316 µM): 29.4%
- viability, T/C (second compound 1 µM, first compound 0.1 µM): 37.3%
- viability, T/C (second compound 1 µM, first compound 0.316 µM): 34.2%
- viability, T/C (second compound 1 µM, first compound 1 µM): 41.1%
- viability, T/C (second compound 3.16 µM, first compound 0.00316 µM): 21.4%
- viability, T/C (second compound 3.16 µM, first compound 0.01 µM): 18.7%
- viability, T/C (second compound 3.16 µM, first compound 0.0316 µM): 18.4%
- viability, T/C (second compound 3.16 µM, first compound 0.1 µM): 19.4%
- viability, T/C (second compound 3.16 µM, first compound 0.316 µM): 24.2%
- viability, T/C (second compound 3.16 µM, first compound 1 µM): 26.1%
- viability, T/C (second compound 10 µM, first compound 0.00316 µM): 30.4%
- viability, T/C (second compound 10 µM, first compound 0.01 µM): 16.3%
- viability, T/C (second compound 10 µM, first compound 0.0316 µM): 15%
- viability, T/C (second compound 10 µM, first compound 0.1 µM): 15.2%
- viability, T/C (second compound 10 µM, first compound 0.316 µM): 26.6%
- viability, T/C (second compound 10 µM, first compound 1 µM): 28.9%

Structure (SMILES): NC(=O)C(=Cn1cnc(-c2cc(C(F)(F)F)cc(C(F)(F)F)c2)n1)c1cncnc1 + Cc1c(S(C)(=O)=O)c(-c2cc(F)cc(N3CCN(c4ccc(NS(=O)(=O)c5ccc(NC(CCN6CCC(C(=O)OCCCP(=O)(O)O)CC6)CSc6ccccc6)c(S(=O)(=O)C(F)(F)F)c5)cc4)CC3)c2)c(-c2ccc(Cl)cc2)n1C(C)C
- IC50 (second compound 0.0316 µM): > 300 nM
- IC50 (second compound 0.1 µM): > 300 nM
- IC50 (second compound 0.316 µM): > 300 nM
- IC50 (second compound 1 µM): < 0.949 nM
- IC50 (second compound 3.16 µM): < 0.949 nM
- IC50 (second compound 10 µM): < 0.949 nM
- viability, T/C (second compound 0.0316 µM, first compound 0.000949 µM): 95%
- viability, T/C (second compound 0.0316 µM, first compound 0.003 µM): 97.1%
- viability, T/C (second compound 0.0316 µM, first compound 0.00949 µM): 60.6%
- viability, T/C (second compound 0.0316 µM, first compound 0.03 µM): 82.1%
- viability, T/C (second compound 0.0316 µM, first compound 0.0949 µM): 103%
- viability, T/C (second compound 0.0316 µM, first compound 0.3 µM): 108%
- viability, T/C (second compound 0.1 µM, first compound 0.000949 µM): 84%
- viability, T/C (second compound 0.1 µM, first compound 0.003 µM): 90.4%
- viability, T/C (second compound 0.1 µM, first compound 0.00949 µM): 70.9%
- viability, T/C (second compound 0.1 µM, first compound 0.03 µM): 62.1%
- viability, T/C (second compound 0.1 µM, first compound 0.0949 µM): 89.3%
- viability, T/C (second compound 0.1 µM, first compound 0.3 µM): 85.9%
- viability, T/C (second compound 0.316 µM, first compound 0.000949 µM): 70.3%
- viability, T/C (second compound 0.316 µM, first compound 0.003 µM): 49%
- viability, T/C (second compound 0.316 µM, first compound 0.00949 µM): 47.2%
- viability, T/C (second compound 0.316 µM, first compound 0.03 µM): 47.5%
- viability, T/C (second compound 0.316 µM, first compound 0.0949 µM): 69.6%
- viability, T/C (second compound 0.316 µM, first compound 0.3 µM): 43.5%
- viability, T/C (second compound 1 µM, first compound 0.000949 µM): 47.1%
- viability, T/C (second compound 1 µM, first compound 0.003 µM): 30.3%
- viability, T/C (second compound 1 µM, first compound 0.00949 µM): 34.6%
- viability, T/C (second compound 1 µM, first compound 0.03 µM): 33%
- viability, T/C (second compound 1 µM, first compound 0.0949 µM): 43.8%
- viability, T/C (second compound 1 µM, first compound 0.3 µM): 18.4%
- viability, T/C (second compound 3.16 µM, first compound 0.000949 µM): 19.8%
- viability, T/C (second compound 3.16 µM, first compound 0.003 µM): 21.9%
- viability, T/C (second compound 3.16 µM, first compound 0.00949 µM): 22.6%
- viability, T/C (second compound 3.16 µM, first compound 0.03 µM): 20.9%
- viability, T/C (second compound 3.16 µM, first compound 0.0949 µM): 16.2%
- viability, T/C (second compound 3.16 µM, first compound 0.3 µM): 5.69%
- viability, T/C (second compound 10 µM, first compound 0.000949 µM): 12.2%
- viability, T/C (second compound 10 µM, first compound 0.003 µM): 16.9%
- viability, T/C (second compound 10 µM, first compound 0.00949 µM): 11.6%
- viability, T/C (second compound 10 µM, first compound 0.03 µM): 10.2%
- viability, T/C (second compound 10 µM, first compound 0.0949 µM): 9.2%
- viability, T/C (second compound 10 µM, first compound 0.3 µM): 0.76%
